≈ marks a conversion by molar mass, not a printed value. Calls of active or inactive are those of the source. The calls are words filed in the database; no cut-off is given here. Residues, ends and D or L forms follow the SMILES beside them.
Legend:
Klebsiella pneumoniae [1] = experiment: Potentiation of erythromycin induced antibacterial activity against Klebsiella pneumoniae ATCC 700603 assessed as decrease in bacterial growth at 0.4 uM incubated for 18 hrs in presence of erythromycin by two fold serial dilution assay; format: functional, organism-based
Klebsiella pneumoniae [2] = experiment: Potentiation of fusidic acid induced antibacterial activity against Klebsiella pneumoniae ATCC 700603 assessed as decrease in bacterial growth at 0.4 uM incubated for 18 hrs in presence of fusidic acid by two fold serial dilution assay; format: functional, organism-based
Klebsiella pneumoniae [3] = experiment: Antibacterial activity against Klebsiella pneumoniae ATCC 700603 assessed as inhibition of bacterial growth incubated for 18 hrs by two fold serial dilution assay; format: functional
Acinetobacter baumannii [4] = experiment: Potentiation of fusidic acid induced antibacterial activity against Acinetobacter baumannii ATCC 17978 assessed as decrease in bacterial growth at 0.4 uM incubated for 18 hrs in presence of fusidic acid by two fold serial dilution assay; format: functional, organism-based
Acinetobacter baumannii [5] = experiment: Potentiation of erythromycin induced antibacterial activity against Acinetobacter baumannii ATCC 17978 assessed as decrease in bacterial growth at 0.4 uM incubated for 18 hrs in presence of erythromycin by two fold serial dilution assay; format: functional, organism-based
Escherichia coli [6] = experiment: Potentiation of erythromycin induced antibacterial activity against Escherichia coli ATCC 25922 assessed as decrease in bacterial growth at 0.4 uM incubated for 18 hrs in presence of erythromycin by two fold serial dilution assay; format: functional, organism-based
[7] = Hydrophobicity of the compound assessed as retention time by reversed-phase HPLC analysis; format: physicochemical
Acinetobacter baumannii [8] = experiment: Potentiation of novobiocin induced antibacterial activity against Acinetobacter baumannii ATCC 17978 assessed as decrease in bacterial growth at 0.4 uM incubated for 18 hrs in presence of novobiocin by two fold serial dilution assay; format: functional, organism-based
[9] = Hemolytic activity in human blood assessed as hemolysis incubated for 6 hrs by microplate reader analysis; format: toxicity, tissue-based
Klebsiella pneumoniae [10] = experiment: Potentiation of novobiocin induced antibacterial activity against Klebsiella pneumoniae ATCC 700603 assessed as decrease in bacterial growth at 0.4 uM incubated for 18 hrs in presence of novobiocin by two fold serial dilution assay; format: functional, organism-based
Acinetobacter baumannii [11] = experiment: Antibacterial activity against Acinetobacter baumannii ATCC 17978 assessed as inhibition of bacterial growth incubated for 18 hrs by two fold serial dilution assay; format: functional
Escherichia coli [12] = experiment: Potentiation of fusidic acid induced antibacterial activity against Escherichia coli ATCC 25922 assessed as decrease in bacterial growth at 0.4 uM incubated for 18 hrs in presence of fusidic acid by two fold serial dilution assay; format: functional, organism-based
Escherichia coli [13] = experiment: Antibacterial activity against Escherichia coli ATCC 25922 assessed as inhibition of bacterial growth incubated for 18 hrs by two fold serial dilution assay; format: functional
Escherichia coli [14] = experiment: Potentiation of novobiocin induced antibacterial activity against Escherichia coli ATCC 25922 assessed as decrease in bacterial growth at 0.4 uM incubated for 18 hrs in presence of novobiocin by two fold serial dilution assay; format: functional, organism-based

Compound | Activity (Klebsiella pneumoniae [1]) | Activity (Klebsiella pneumoniae [2]) | MIC (Klebsiella pneumoniae [3]) | Activity (Acinetobacter baumannii [4]) | Activity (Acinetobacter baumannii [5]) | Activity (Escherichia coli [6]) | Retention_time [7] | Activity (Acinetobacter baumannii [8]) | MHC10 [9] | Activity (Klebsiella pneumoniae [10]) | MIC (Acinetobacter baumannii [11]) | Activity (Escherichia coli [12]) | MIC (Escherichia coli [13]) | Activity (Escherichia coli [14])
CC(=O)N[C@@H](CCCCN)C(=O)N[C@@H](CCCCN)C(=O)N[C@@H](CC(C)C)C(=O)N[C@@H](CC(C)C)C(=O)N[C@@H](CCCCN)C(=O)N[C@@H](CC(C)C)C(=O)N[C@@H](CC(C)C)C(=O)N[C@@H](CCCCN)C(=O)N[C@@H](CCCCN)C(=O)N1CCC[C@H]1C(=O)N[C@@H](CC(C)C)C(=O)N[C@@H](CCCCN)C(=O)N[C@@H](CC(C)C)C(=O)N[C@@H](CC(C)C)C(=O)N[C@@H](CCCCN)C(N)=O | Active | Active | > 80 µM | Active | Active | Active | 18.2 min | Active | > 160 µM | Active | 10 µM (≈ 18.5 µg/mL) | Active | > 80 µM | Active
CCCCCCCCCCCCCCCC(=O)N[C@@H](CCCCN)C(=O)N[C@@H](CCCCN)C(=O)N[C@@H](C)C(=O)N[C@@H](CC(C)C)C(=O)N[C@@H](CCCCN)C(=O)N[C@@H](CC(C)C)C(=O)N[C@@H](C)C(=O)N[C@@H](CCCCN)C(=O)N[C@@H](CCCCN)C(=O)N1CCC[C@H]1C(=O)N[C@@H](CC(C)C)C(=O)N[C@@H](CCCCN)C(=O)N[C@@H](CC(C)C)C(=O)N[C@@H](CC(C)C)C(=O)N[C@@H](CCCCN)C(N)=O (HELM PEPTIDE1{[CCCCCCCCCCCCCCCC(=O)[*:2]].K.K.A.L.K.L.A.K.K.P.L.K.L.L.K.[am]}$$$$V2.0) |  |  | 10 µM (≈ 19.6 µg/mL) |  |  |  | 22.9 min |  | 5.9 µM |  | 1.3 µM (≈ 2.55 µg/mL) |  | 5 µM (≈ 9.79 µg/mL) | 
Ac-AKLLKLLKKPLKLLK-NH2 | Active | Active | > 80 µM | Active | Active | Active | 19.2 min | Active | > 160 µM | Active | 40 µM | Active | > 80 µM | Active
Ac-KALLKLLKKPLKLLK-NH2 | Active | Active | > 80 µM | Active | Active | Active | 19.4 min | Active | > 160 µM | Active | 20 µM | Active | > 80 µM | Active
Ac-KKALKLAKKPLKLLK-NH2 |  |  | > 80 µM |  |  |  | 15.3 min |  | > 160 µM |  | > 80 µM |  | > 80 µM | 
Ac-KKALKLLKKPLKLLK-NH2 | Active | Active | > 80 µM | Active | Active | Active | 16.7 min | Active | > 160 µM | Active | > 80 µM | Active | > 80 µM | Active
Ac-KKLAKLLKKPLKLLK-NH2 | Active | Active | > 80 µM | Active | Active | Active | 17.1 min | Active | > 160 µM | Active | 80 µM | Active | > 80 µM | Active
Ac-KKLLALLKKPLKLLK-NH2 | Active | Active | 80 µM | Active | Active | Active | 19.4 min | Active | > 160 µM | Active | 20 µM | Active | 80 µM | Active
Ac-KKLLKLAKKPLKLLK-NH2 | Active | Active | > 80 µM | Active | Active | Active | 16.8 min | Active | > 160 µM | Active | > 80 µM | Active | > 80 µM | Active
Ac-KKLLKLLAKPLKLLK-NH2 | Active | Active | > 80 µM | Active | Active | Active | 19.6 min | Active | > 160 µM | Active | 40 µM | Active | > 80 µM | Active
Ac-KKLLKLLKAPLKLLK-NH2 | Active | Active | > 80 µM | Active | Active | Active | 19.6 min | Active | > 160 µM | Active | 20 µM | Active | > 80 µM | Active
Ac-KKLLKLLKKPAKLLK-NH2 | Active | Active | > 80 µM | Active | Active | Active | 17.1 min | Active | > 160 µM | Active | 80 µM | Active | > 80 µM | Active
Ac-KLLKLLKKPLKL-NH2 |  |  | > 80 µM |  |  |  | 18 min |  | > 160 µM |  | > 80 µM |  | > 80 µM | 
Ac-KLLKLLKKPLKLL-NH2 |  |  | > 80 µM |  |  |  | 19.4 min |  | > 160 µM |  | 20 µM |  | > 80 µM | 
Ac-KLLKLLKKPLKLLKK-NH2 |  |  | > 80 µM |  |  |  | 18.2 min |  | > 160 µM |  | 20 µM |  | > 80 µM | 
Ac-KLLKLLKKPLKLLKKL-NH2 |  |  | 40 µM |  |  |  | 19.7 min |  | > 160 µM |  | 5 µM |  | > 80 µM | 
Ac-LKKLLKLLKKPLKLLK-NH2 |  |  | 2.5 µM |  |  |  | 20.1 min |  | 53 µM |  | 1.3 µM |  | > 10 µM | 
Ac-LKLLKKPLKLLK-NH2 |  |  | > 80 µM |  |  |  | 18 min |  | > 160 µM |  | > 80 µM |  | > 80 µM | 
Ac-LLKLLKKPLKLLK-NH2 |  |  | > 80 µM |  |  |  | 19.8 min |  | > 160 µM |  | > 80 µM |  | > 80 µM | 

From ChEMBL document CHEMBL5385907, “Proline-Hinged α-Helical Peptides Sensitize Gram-Positive Antibiotics, Expanding Their Physicochemical Properties to Be Used as Gram-Negative Antibiotics” (J Med Chem, 2024)
